Source: patent US20250263396A1, “CRYSTALLINE FORMS OF 3-(5-(2-HYDROXY-2- METHYLPROPOXY)-6-METHYPYRAZIN-2-YL)-1H-INDOLE-7-CARBONITRILE” (NIDO BIOSCIENCES, INC., priority 2024, published 2025)
Converted amounts (≈) assume the structure as drawn.

Experiments:
[1] = Equilibration with solvents; assay type: physicochemical
Protocol: Obtained suspensions were filtered through a 0.45 μm nylon membrane filter by centrifugation at 14,000 rpm. Solid parts (wet cakes) were investigated by XRPD. For samples with different XRPD patterns, additional analysis including DSC, TGA, ^1H-NMR were performed.
(§1) Obtained suspensions were filtered through a 0.45 μm nylon membrane filter by centrifugation at 14,000 rpm.
as §1

physchem = conditions: 37 °C, thermodynamic from solid
Protocol: Non-milled Form P (10 mg, purity 100%) was weighed into a 20 mL glass vial. 5 mL of solubility medium was added. Obtained suspensions were stirred at 37° C. at 400 rpm and sampled at 24 hours. The samples were centrifuged at 37 C at 14,000 rpm for 5 min. Supernatants were analyzed by HPLC and pH meter for solubility and pH value, respectively. Residual solids (wet cakes) from the 24 hours samples were also characterized by XRPD to determine physical form.

## Cc1nc(-c2c[nH]c3c(C#N)cccc23)cnc1OCC(C)(C)O [Form P, 3-(5-(2-hydroxy-2-methylpropoxy)-6-methylpyrazin-2-yl)-1H-indole-7-carbonitrile]
[1]; 2-MeTHF, 25° C., 2 weeks
  XRPD after equilibration: Form P
[1]; 2-MeTHF, 50° C., 1 week
  XRPD after equilibration: Form P
[1]; 2-MeTHF/heptane (v:v = 1:1), 25° C., 2 weeks
  XRPD after equilibration: Form P
[1]; 2-MeTHF/heptane (v:v = 1:1), 50° C., 1 week
  XRPD after equilibration: Form P
[1]; 2-MeTHF/heptane (v:v = 3:1), 25° C., 2 weeks
  XRPD after equilibration: Form P
[1]; 2-MeTHF/heptane (v:v = 3:1), 50° C., 1 week
  XRPD after equilibration: Form P
[1]; 2-Propanol, 25° C., 2 weeks
  XRPD after equilibration: Form P
[1]; 2-Propanol, 50° C., 1 week
  XRPD after equilibration: Form P
[1]; Acetone, 25° C., 2 weeks
  XRPD after equilibration: Form P
[1]; Acetone, 50° C., 1 week
  XRPD after equilibration: Form P
[1]; Acetone/water (v:v = 30:70) a.w. = 0.92, 50° C., 1 week
  XRPD after equilibration: Form P
[1]; Acetonitrile, 25° C., 2 weeks
  XRPD after equilibration: Form P
[1]; Acetonitrile, 50° C., 1 week
  XRPD after equilibration: Form P
[1]; DMSO, 25° C., 2 weeks
  XRPD after equilibration: Form U
[1]; DMSO, 50° C., 1 week, (500 mg/mL)
  Comments (appearance): Clear solution
[1]; DMSO/water (v:v = 40:60) a.w. = 0.77, 50° C., 1 week
  XRPD after equilibration: Form P
[1]; Ethanol, 25° C., 2 weeks
  XRPD after equilibration: Form P
[1]; Ethanol, 50° C., 1 week
  XRPD after equilibration: Form P
[1]; Ethanol/water (v:v = 40:60) a.w. = 0.91, 25° C., 2 weeks
  XRPD after equilibration: Form P
[1]; Ethanol/water (v:v = 40:60) a.w. = 0.91, 50° C., 1 week
  XRPD after equilibration: Form P
[1]; Ethyl acetate, 25° C., 2 weeks
  XRPD after equilibration: Form P
[1]; Ethyl acetate, 50° C., 1 week
  XRPD after equilibration: Form P
[1]; Heptane, 25° C., 2 weeks
  XRPD after equilibration: Form P
[1]; Heptane, 50° C., 1 week
  XRPD after equilibration: Form P
[1]; Isopropyl acetate, 25° C., 2 weeks
  XRPD after equilibration: Form P
[1]; Isopropyl acetate, 50° C., 1 week
  XRPD after equilibration: Form P
[1]; MEK, 25° C., 2 weeks
  XRPD after equilibration: Form P
[1]; MEK, 50° C., 1 week
  XRPD after equilibration: Form P
[1]; MTBE, 25° C., 2 weeks
  XRPD after equilibration: Form P
[1]; MTBE, 50° C., 1 week
  XRPD after equilibration: Form P
[1]; Methanol, 25° C., 2 weeks
  XRPD after equilibration: Form B + Form W
[1]; Methanol, 50° C., 1 week
  XRPD after equilibration: Form P
[1]; NMP, 25° C., 2 weeks
  XRPD after equilibration: Form Q
[1]; NMP, 50° C., 1 week, (500 mg/mL)
  Comments (appearance): Clear solution
[1]; THF, 25° C., 2 weeks
  XRPD after equilibration: Form P
[1]; THF, 50° C., 1 week, (250 mg/mL)
  Comments (appearance): Clear solution
[1]; THF/water (v:v = 80:20) a.w. = 0.91, 50° C., 1 week, (500 mg/mL)
  Comments (appearance): Clear solution
[1]; Toluene, 25° C., 2 weeks
  XRPD after equilibration: Form P
[1]; Toluene, 50° C., 1 week
  XRPD after equilibration: Form P
[1]; Water, 25° C., 2 weeks
  XRPD after equilibration: Form P
[1]; Water, 50° C., 1 week
  XRPD after equilibration: Form P
physchem; pH 1.2, simulated gastric fluid
  solubility at 24 h: 7.2 µg/mL (≈ 22.3 µM)
physchem; pH 1.6, fassgf or other biorelevant
  solubility at 24 h: 5.1 µg/mL (≈ 15.8 µM)
physchem; pH 3, aqueous buffer
  solubility at 24 h: 2.9 µg/mL (≈ 9 µM)
physchem; pH 5, aqueous buffer
  solubility at 24 h: 2.3 µg/mL (≈ 7.13 µM)
physchem; pH 5, fessif
  solubility at 24 h: 111 µg/mL (≈ 343 µM)
physchem; pH 6.5, fassif
  solubility at 24 h: 20.9 µg/mL (≈ 64.8 µM)
physchem; pH 7, aqueous buffer
  solubility at 24 h: 2.4 µg/mL (≈ 7.44 µM)
physchem; water
  solubility at 24 h: 2.7 µg/mL (≈ 8.38 µM)
